≈ marks a conversion by molar mass, not a printed value. Entries after “also recorded” stand apart in the source; their conditions may differ. Where two headings read alike, the source gives them in different places.
Legend:
[1] = system: T cells compared to B cells; T-leukemic cells; settings: cited from earlier work
[2] = Bioavailability of araG after oral administration to Cynomolgus monkeys (plasma, urine); type: in vivo; settings: fasted Cynomolgus monkeys, individual animals; for Cmax: read-out: Plasma araG Peak Level
Protocol: AraG and compounds of the invention were administered orally to Cynomolgus monkeys which had been fasted for eight hours. Each compound was given to two monkeys. The dosage was 94 μmol/kg which is equivalent to 27 mg/kg araG. Blood samples were taken over the following 24 hours, and urine was collected over the same 24 hours. Concentrations of araG in plasma extracts and urine were determined by reverse phase HPLC.

Molt 4 cells = assay: Inhibition of the growth of T cells (Molt 4); type: cell-based; settings: Homo sapiens
Protocol: (§1) The compounds of the invention were tested for inhibition of the growth of T cells (Molt 4) compared to B cells (IM9) by the method of Averett, D., Journal of Virological Methods, 23, (1989), 263-276.

[3] = Water solubility (statement); type: physicochemical; settings: in words
[4] = Solubility in PBS at 25° C.; type: physicochemical; settings: aqueous buffer, phosphate buffered saline
IM9 cells = assay: Inhibition of the growth of B cells (IM9); type: cell-based; settings: Homo sapiens; for IC50: IM-9; for activity at 10 µM: IM-9, printed in parentheses beside IC50 >10 μM, read-out: % of Control growth
Protocol: as §1

[5] = Bioavailability after oral dosing in primates (statement); type: in vivo; settings: in words
[6] = system: human T-cell line (Molt 4) in contrast to a human B-cell line (IM9); assay: Selective inhibition of T cell growth, Molt 4 compared to IM9; type: cell-based; settings: Molt 4 vs IM9
Protocol: as §1

In the case of `Nc1nc2c(ncn2[C@@H]2O[C@H](CO)[C@@H](O)[C@@H]2O)c(=O)[nH]1` [araG, arabinofuranosyl guanine], the “selective inhibition of growth of T cells / selective cytotoxic activity for T-leukemic cells” value [1] is listed as “selectively inhibits the growth of T cells compared to B cells; also recorded: selective cytotoxic activity for T-leukemic cells”, the “Plasma araG AUC 0.7 hrs” value ([2]; 94 μmol/kg, plasma, 420 min) is listed as 21.1 µM·h and the Cmax ([2]; 94 μmol/kg, plasma) is listed as 4.6 µM. For the same molecule, the “Urine % Recovered as araG” value ([2]; 94 μmol/kg, urine over 24 hours, 1440 min) was 4.2%, the AUC(0-t) at 7 h ([2]; cynomolgus monkey, plasma, po, 94 umol/kg, plasma, read-out: Plasma araG AUC 0.7 hrs) was 20.8 µM·h and the Cmax ([2]; cynomolgus monkey, plasma, po, 94 umol/kg, plasma) was 6 µM. For the same molecule, the dose excreted at 24 h ([2]; cynomolgus monkey, urine, po, 94 umol/kg, urine over 24 hours, read-out: Urine % Recovered as araG) was 3.9%, the IC50 (Molt 4 cells) was 1.4 ± 0.08 µM and the water solubility [3] was “limited water solubility”. It also gave a solubility [4] of 4 mM (≈ 1.13 mg/mL), an IC50 (IM9 cells) greater than 10 µM and an activity at 10 µM (IM9 cells) of 84%. The oral bioavailability [5] was “low bioavailability after oral dosing in primates”.

In the case of `COc1nc(N)nc2c1ncn2[C@@H]1O[C@H](CO)[C@@H](O)[C@@H]1O` [compound 1, 2-Amino-6-methoxy-9-(β-D-arabinofuranosyl)-9H-purine], the IC50 (Molt 4 cells) is reported as 0.8 ± 0.1 µM, the “selective inhibition of growth of T-cell line vs B-cell line” value [6] is reported as “selectively inhibits the growth of a human T-cell line (Molt 4) in contrast to a human B-cell line (IM9)” and the IC50 (IM9 cells) is reported as greater than 10 µM. For the same molecule, the activity at 10 µM (IM9 cells) was 85%.

`COc1nc(N)nc2c1ncn2[C@@H]1O[C@H](COC(C)=O)[C@@H](O)[C@@H]1O` [Example 1b, 9-(5-O-Acetyl-β-D-arabinofuranosyl)-2-amino-6-methoxy-9H-purine] gave a solubility [4] of 92 mM (≈ 31.2 mg/mL).

`COc1nc(N)nc2c1ncn2[C@@H]1O[C@H](COC(C)=O)[C@@H](OC(C)=O)[C@@H]1O` [Example 2j, 9-(3,5-di-O-Acetyl-β-D-arabinofuranosyl)-2-amino-6-methoxy-9H-purine] gave a solubility [4] of 38 mM (≈ 14.5 mg/mL).
